Assays:
hA3AR = molecular target: T1, hA3AR (Homo sapiens, UniProt P0DMS8); assay: Modulation of Forskolin-stimulated cAMP levels in hA3 CHO cells; type: cell-based; conditions: for IC50: cAMP assay, hA3 CHO cells, read-out: hA3AR IC50, potency to modulate Forskolin-stimulated cAMP levels; for hA3AR Efficacy: normalized: 2-Cl-IB-MECA full agonist = 100%
T1 construct: host or cells: CHO cells
T1 sequence (P0DMS8 1-318): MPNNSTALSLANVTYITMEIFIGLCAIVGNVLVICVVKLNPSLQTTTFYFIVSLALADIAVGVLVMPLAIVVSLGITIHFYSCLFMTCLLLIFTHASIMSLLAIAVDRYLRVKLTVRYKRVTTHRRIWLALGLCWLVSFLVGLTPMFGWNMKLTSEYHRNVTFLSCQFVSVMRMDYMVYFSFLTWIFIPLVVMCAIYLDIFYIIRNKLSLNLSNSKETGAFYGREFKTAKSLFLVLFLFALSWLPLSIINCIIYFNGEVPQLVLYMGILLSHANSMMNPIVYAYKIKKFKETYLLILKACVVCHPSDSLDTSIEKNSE
Method: (§1) The amino-3,5-dicyanopyridines 1–21 were tested for their affinity at hA1, hA2A and hA3 ARs, stably transfected in Chinese Hamster Ovary (CHO) cells. Moreover, they were also studied as hA2B agonists by evaluating their stimulatory effect on cAMP production in CHO cells, stably expressing the hA2B AR. […] Due to their interesting pan profile, both compounds 1 and 5 were evaluated as AR agonists also at the hA2A and hA3 subtypes.
(§2) CHO cells transfected with hA1, hA2A, hA2B and hA3 ARs (Perkin Elmer, Boston, MA, USA) were grown adherently and maintained in Dulbecco’s modified Eagle’s medium with nutrient mixture F12, containing 10% fetal calf serum, penicillin (100 U/mL), streptomycin (100 μg/mL), L-glutamine (2 mM) and geneticine (G418; 0.2 mg/mL), at 37 °C, in 5% CO2/95% air, until their use in cAMP assays. For membrane preparation, the culture medium was removed, and the cells were washed with phosphate-buffered saline and scraped off T75 flasks in ice-cold hypotonic buffer (5 mM Tris HCl, 1 mM EDTA, pH 7.4). The cell suspension was homogenized with a Polytron, centrifuged for 30 min at 40,000× g, at 4 °C, and the resulting membrane pellet was used for competition binding experiments.
(§3) CHO cells transfected with hAR subtypes were washed with phosphate-buffered saline, detached with tripsine and centrifuged for 10 min at 200× g. Cells were seeded in a 96-well white half-area microplate (Perkin Elmer, Boston, USA) in a stimulation buffer composed of Hank Balanced Salt Solution, 5 mM HEPES, 0.5 mM Ro 20–1724, 0.1% BSA. The cAMP levels were then quantified by using the AlphaScreen cAMP Detection Kit (Perkin Elmer, Boston, MA, USA), following the manufacturer’s instructions. At the end of the experiments, the plates were read with a Perkin Elmer EnSight Multimode Plate Reader.

[1] = In vitro permeation, vertical Franz diffusion cell; type: in vitro ADME; conditions: cellulose nitrate membrane impregnated with lauryl alcohol, PBS pH 7.4 + Tween 80 2% w/w, 37 °C
Method: Compounds 1 and 5 were evaluated for their capability to penetrate the artificial membrane simulating the epidermal barrier. Permeation flux was assessed by using vertical Franz diffusion cells.
Compound assay was performed by HPLC (Merck Hitachi Elite LaChrom apparatus, Darmstadt, Germany), equipped with a L-2400 UV–Vis detector and an L-2130 isocratic pump. The mobile phase A was water, and the mobile phase B was methanol. Gradient steps were programmed as follows: A–B 60%–40% at time 0, ramped to 70% B in 3 min, held at 70% for 2 min and returned to initial conditions during 3 min. A Hibar Purospher® RP-8e (150 × 4.6 mm, 5 µm pore size) was the stationary phase. UV detection was performed at 292 nm. The injection volume was 20 µL, the flow rate was 1.2 mL/min and the column temperature was 40 ± 1 °C. Under these conditions, the compounds retention time was 5.30 ± 0.01 min. The method was validated for linearity (r^2 = 0.998; r^2 = 0.997), limit of quantification (3.03 µg/mL; 4.50 µg/mL) and limit of detection (0.91 µg/mL; 1.35 µg/mL) for P293BL and P297, respectively.
In vitro permeation studies were carried out by using vertical Franz diffusion cell (Rofarma, Gaggiano, Italy). […] A correction for the cumulative dilution, due to the sample replacement with an equal volume of fresh medium, was calculated. […]

hA2AAR = molecular target: T2, hA2AAR (Homo sapiens, UniProt P29274); assay: cAMP assay in hA2A CHO cells; type: cell-based; conditions: for EC50: cAMP assay, hA2A CHO cells; for hA2AAR Efficacy: normalized: CGS21680 full agonist = 100%
T2 construct: host or cells: CHO cells
Method: as §1, §2, §3

T2 sequence (P29274 whole entry): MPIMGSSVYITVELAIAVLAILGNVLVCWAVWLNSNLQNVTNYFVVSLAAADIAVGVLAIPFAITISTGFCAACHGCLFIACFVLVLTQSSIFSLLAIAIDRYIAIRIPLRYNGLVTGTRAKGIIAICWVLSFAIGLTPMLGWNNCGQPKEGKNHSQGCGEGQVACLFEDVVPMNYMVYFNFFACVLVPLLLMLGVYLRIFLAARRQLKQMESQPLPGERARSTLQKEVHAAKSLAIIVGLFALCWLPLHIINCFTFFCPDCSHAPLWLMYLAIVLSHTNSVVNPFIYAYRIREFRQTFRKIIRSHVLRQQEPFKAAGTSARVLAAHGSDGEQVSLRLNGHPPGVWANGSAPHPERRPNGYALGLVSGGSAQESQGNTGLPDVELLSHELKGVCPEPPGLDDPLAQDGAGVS

Row | IC50 (hA3AR) | hA3AR Efficacy (hA3AR) | amount of permeated drug after 24 h [1] | EC50 (hA2AAR) | hA2AAR Efficacy (hA2AAR) | melting point | Structure (SMILES)
1 | 68 ± 6 nM | 45 ± 4% | 15.0 ± 1.4 µg/mL | 15.1 ± 1.3 nM | 39 ± 3% |  | N#Cc1c(N)nc(SCc2ncc[nH]2)c(C#N)c1-c1ccco1 [Compound 1, 2-Amino-4-(furan-2-yl)-6-[(1H-imidazol-2-ylmethyl)sulfanyl]pyridine-3,5-dicarbonitrile]
2 | 33 ± 2 nM | 34 ± 3% | 22.7 ± 1.0 µg/mL | 11.3 ± 1 nM | 40 ± 3% | 246 to 248 °C | N#Cc1c(N)nc(SCc2ncc[nH]2)c(C#N)c1-c1cccs1 [Compound 5, 2-Amino-6-[(1H-imidazol-2-ylmethyl)sulfanyl]-4-(thiophen-2-yl)pyridine-3,5-dicarbonitrile]

Reference: paper PMC9024521, “4-Heteroaryl Substituted Amino-3,5-Dicyanopyridines as New Adenosine Receptor Ligands: Novel Insights on Structure-Activity Relationships and Perspectives” (Pharmaceuticals, 2022)
